Source: patent US9808536B2, “Hypericin albumin nanoparticle-Escherichia coli serum antibody complex and preperation method and application thereof” (LANZHOU INSTITUTE OF HUSBANDRY AND PHARMACEUTICAL SCIENCES …, priority 2015, dated 2017)
Converted amounts (≈) assume the structure as drawn.

Tests used:
Escherichia coli = assay: Treatment of colibacillosis animal model (mice); details: control groups, 30 mice; hypericin injection 1.0 mL/mouse intramuscular
[1] = test system: pathogenic Escherichia coli; assay: Treatment of chicken colibacillosis (sick chickens); details: 2.00 mg/Kg intramuscular, 2 times/d, 1 d, 50 chickens
[2] = test system: Escherichia coli (E. coli) C4403; assay: Minimal inhibitory concentration, double dilution method, Escherichia coli; details: for minimal inhibitory concentration: Escherichia coli, no growth on agar plate after 24 hours
[3] = test system: Staphylococcus aureus (S. aureus) C26112; assay: Minimal inhibitory concentration, double dilution method, Staphylococcus aureus; details: for minimal inhibitory concentration: Staphylococcus aureus, no growth on agar plate after 24 hours
[4] = 0.2 μg/ml, 24 hours, eye observation of turbidity
[5] = 0.4 μg/ml, 24 hours, eye observation of turbidity
[6] = 0.8 μg/ml, 24 hours, eye observation of turbidity
[7] = 3.2 μg/ml, 24 hours, eye observation of turbidity
[8] = 6.4 μg/ml, 24 hours, eye observation of turbidity
[9] = 12.8 μg/ml, 24 hours, eye observation of turbidity
[10] = 25.6 μg/ml, 24 hours, eye observation of turbidity

## Cc1cc(O)c2c(=O)c3c(O)cc(O)c4c5c(O)cc(O)c6c(=O)c7c(O)cc(C)c8c1c2c(c34)c(c78)c65 [Hypericin, hypericin]
Escherichia coli
  Cure (number of mice): 10
  Cure rate (%): 33.3%
  Effective (number of mice): 27
  Effective rate (%): 90%
[1]
  Cure rate (%): 70%
  Effective rate (%): 80%
  Total amount of cured ones: 35
  Total amount of effective ones: 40
[1]; listed as hypericin
  Cure rate (%): 80%
[2]; [4]
  bacterial growth in tube 8: +
[2]; [5]
  bacterial growth in tube 7: +
[2]; [6]
  bacterial growth in tube 6: +
[2]; [7]
  bacterial growth in tube 4: −
[2]; [8]
  bacterial growth in tube 3: −
[2]; [9]
  bacterial growth in tube 2: −
[2]; [10]
  bacterial growth in tube 1: −
[2]
  minimal inhibitory concentration: 0.4 µg/mL (≈ 0.793 µM)
[2]; listed as 2
  minimal inhibitory concentration: 6.4 µg/mL (≈ 12.7 µM)
[3]; [4]
  bacterial growth in tube 8: +
[3]; [5]
  bacterial growth in tube 7: +
[3]; [6]
  bacterial growth in tube 6: +
[3]; [7]
  bacterial growth in tube 4: −
[3]; [8]
  bacterial growth in tube 3: −
[3]; [9]
  bacterial growth in tube 2: −
[3]; [10]
  bacterial growth in tube 1: −
[3]
  minimal inhibitory concentration: 0.8 µg/mL (≈ 1.59 µM)
[3]; listed as 2
  minimal inhibitory concentration: 6.4 µg/mL (≈ 12.7 µM)
